Results taken from the supplement of paper PMC10307832.

Columns and labels:
Assay in all cases: relative viability (nuclei count vs DMSO), 5 days (fraction); higher = more cells survive
[1] = compound: Nc1nc(Nc2ccc3c(c2)CC[C@@H](N2CCCC2)CC3)nn1-c1cc2c(nn1)-c1ccccc1CCC2 [Bemcentinib] + Nc1nc2[nH]cc(CCc3ccc(C(=O)N[C@@H](CCC(=O)O)C(=O)O)cc3)c2c(=O)[nH]1 [Pemetrexed] (partner 0.2 µM)
Summary of the method: (§1)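 Relative viability was taken as the ratio of nuclei in treated wells to nuclei in vehicle wells. Lung cancer cell lines in 1536-well plates received compounds by pin tool one day after seeding, either one drug alone or a fixed anchor-drug dose plus five library-drug doses (not always all listed) in √10 steps. Nuclei were counted on 4× images after 5 days of treatment, and values are medians of duplicate plates.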

[2] = compound: CC1=CC=C(C=C1)C(=O)CN2C3=C(CCCC3)SC2=N [Pifithrin_alpha] + O=C(CCCCCCC(=O)Nc1ccccc1)NO [Vorinostat] (partner 1 µM)
Summary of the method: as §1

[3] = compound: Nc1nc(Nc2ccc3c(c2)CC[C@@H](N2CCCC2)CC3)nn1-c1cc2c(nn1)-c1ccccc1CCC2 [Bemcentinib] + CC(C)C[C@H](NC(=O)[C@H](Cc1ccccc1)NC(=O)c1cnccn1)B(O)O [Bortezomib] (partner 0.002 µM)
Summary of the method: as §1

[4] = compound: Nc1nc(Nc2ccc3c(c2)CC[C@@H](N2CCCC2)CC3)nn1-c1cc2c(nn1)-c1ccccc1CCC2 [Bemcentinib] + COc1cccc2cc(-c3nc([C@H]4CC[C@H](C(=O)O)CC4)n4ncnc(N)c34)[nH]c12 [OSI-027] (partner 0.5 µM)
Summary of the method: as §1

NCI-H650 was tested, and the relative viability ([1]; first compound 0.04 µM) was 0.843, the relative viability ([1]; first compound 0.1265 µM) was 1.06 and the relative viability ([1]; first compound 0.4 µM) was 1.09. For the same cell line, the relative viability ([1]; first compound 1.265 µM) was 0.941, the relative viability ([1]; first compound 4 µM) was 1.01 and the relative viability ([2]; first compound 3.162 µM) was 0.439. The relative viability ([2]; first compound 10 µM) was 0.395, the relative viability ([2]; first compound 31.62 µM) was 0.305 and the relative viability ([2]; first compound 100 µM) was 0.399. The relative viability ([3]; first compound 0.04 µM) was 0.68, the relative viability ([3]; first compound 0.1265 µM) was 0.855 and the relative viability ([3]; first compound 0.4 µM) was 0.92. For the same cell line, the relative viability ([3]; first compound 1.265 µM) was 0.628, the relative viability ([3]; first compound 4 µM) was 0.701 and the relative viability ([4]; first compound 0.04 µM) was 0.468. It also gave a relative viability ([4]; first compound 0.1265 µM) of 0.501, a relative viability ([4]; first compound 0.4 µM) of 0.582 and a relative viability ([4]; first compound 1.265 µM) of 0.496. It also gave a relative viability ([4]; first compound 4 µM) of 0.512.
